Laboratory results as given in patent US9359418B2, “Inhibitors of the T cell-specific alternative p38 activation pathway and methods of use” (The United States of America, as represented by the …, priority 2012, dated 2016).
Entries after “also recorded” stand apart in the source; their conditions may differ.

Assays:
[1] = test system: p38 (alternative activation pathway); assay: In vitro kinase assay: ATF2 phosphorylation by Zap70-activated p38; type: biochemical; settings: (11R)-71-85 0.2-4.0 μg, (11R)-Ctrl 4.0 μg; 30 minutes at 30° C.; p38 activated with Zap70
Method: Purified p38 proteins were activated by incubating with active Zap70 in kinase buffer for 1 hour. (11R)-71-85 or (11R)-Ctrl was then added and incubated for 30 minutes at 30° C. One μg ATF2 and 10 μCi [^32P]ATP were then added and incubated for 45 minutes at 30° C. Phosphorylated products were resolved by SDS-PAGE, transferred to nitrocellulose membranes, and visualized by phosphorimager.
To test whether (11R)-71-85 can inhibit the alternative p38 activation pathway in vitro, an assay was performed to detect phosphorylation of activating transcription factor 2 (ATF2), a target of activated p38, in the presence and absence of (11R)-71-85. Purified p38 proteins were activated by incubation with active Zap70 in kinase buffer for 1 hour. (11R)-71-85 (0.2, 0.5, 1.0, 2.0 or 4.0 μg) or (11R)-Ctrl (4.0 μg) was then added and incubated for 30 minutes at 30° C. One μg ATF2 and 10 μCi [^32P]ATP were added and incubated for 45 minutes at 30° C. Phosphorylated products were resolved by SDS-PAGE, transferred to nitrocellulose membranes, and visualized by phosphorimager. […] In addition, the decrease in ATF2 phosphorylation was dependent on the dose of (11R)-71-85.

[2] = test system: Naïve CD4+ T cells; assay: Th1 differentiation of naïve CD4+ T cells; type: cell-based; settings: 2 μM; Th0 or Th1 polarizing conditions 3 days; relative to medium or (11R)-Ctrl
Method: FIGS. 5A-5D are a series of flow cytometry plots showing (11R)-71-85 inhibits Th1 differentiation. Naïve CD4^+ T cells were treated with either 2 μM of (11R)-71-85 or (11R)-Ctrl for two hours and after washing, cells were stimulated with anti-CD3 plus anti-CD28 in Th0 (neutral, FIG. 5A and FIG. 5C) or Th1 polarizing conditions (FIG. 5B and FIG. 5D) for 3 days. Cells were treated again with the same concentration of either medium (first column), (11R)-Ctrl (second column), or (11R)-71-85 (third column) for 2 hours and restimulated with PMA plus ionomycin in the presence of Golgi inhibitor for 4 hours. Expression of T bet and interferon (IFN)-γ (indicators of Th1 cells typical of a pro-inflammatory response) was analyzed by flow cytometry.
Additional studies were carried out to evaluate the effect of (11R)-71-85 on T helper (Th) cell differentiation. Expression of IFN-γ and T-bet was used as an indicator of Th1 cells typical of a pro-inflammatory response. Naïve CD4^+ T cells were treated with either medium or 2 μM of (11R)-71-85 or (11R)-Ctrl for two hours and after washing, cells were stimulated with anti-CD3 plus anti-CD28 in Th0 (neutral) or Th1 polarizing conditions for 3 days. […] Expression of T bet and IFNγ was analyzed by flow cytometry (FIGS. 5A-5D).

[3] = test system: tumor-infiltrating T cells; assay: PANC02 model, cytokine expression of tumor infiltrating cells; type: in vivo, mice; settings: 80 μg intra-tumor every other day for 1 week
Method: WT C57BL/6 mice were injected with 7.5×10^5 PANC02 cells. After 16 days, mice were injected with 80 μg of either (11R)-71-85 or (11R)-Scrambled (Scr) every other day for 1 week. Twenty-four hours after the last intra-tumor injection, tumor infiltrating cells were harvested and restimulated with PMA and ionomycin, or left unstimulated, in the presence of Golgi inhibitor for 4 hours. Expression of cytokines (IL-17A and TNFα—FIG. 10A; IL-10 and IFNγ—FIG. 10B) was determined by flow cytometry.
The effect of intra-tumor injection of (11R)-71-85 on cytokine secretion from tumor-infiltrating T cells was also evaluated in mice with pancreatic tumors. WT C57BL/6 mice were injected with 7.5×10^5 PANC02 cells and 16 days later mice received intra-tumor injections of 80 μg of (11R)-71-85 or (11R)-Scrambled every other day for 1 week. Twenty-four hours following the last injection, tumor infiltrating cells were harvested and restimulated with PMA and ionomycin, or left unstimulated, in the presence of Golgi inhibitor for 4 hours. Expression of TNF-α, IFNγ, IL-10 and IL-17 was determined by flow cytometry. […] There was no difference in TNF-α secretion after restimulation, which bypasses TCR signaling and activates the classical MAPK cascade. There was no difference between unstimulated and restimulated cells for the other cytokines tested (IFNγ, IL-10, and IL-17; FIGS. 10A-10B).

With “(11R)-71-85: fusion protein: 11 arginine residues added to the N-terminus of the Gadd45α 71-85 peptide (LQIHFTLIQAFCCEN; N-terminal 11 arginine; UniProt P24522 71-85, looked up, fragment)” as the substance, how does the “phosphorylation of ATF2” value [1] read?
The value was “decrease in phosphorylation of ATF2”.

And the “expression of IFN-γ” value [2]?
Its value is “reduced expression; also recorded: blunted”.

What about the “expression of T-bet” value [2] of the same substance?
Its value is “reduced expression; also recorded: blunted”.

What about the “expression of the other cytokines tested (IFNγ, IL-10, and IL-17)” value ([3]; unstimulated and restimulated cells) of the same substance?
Its value is “no difference”.

What about the “TNF-α secretion after restimulation with PMA and ionomycin” value ([3]; versus (11R)-Scrambled) of the same substance?
The value was “no difference”.

What about the “TNF-α secretion, unstimulated tumor infiltrating cells” value ([3]; versus (11R)-Scrambled) of the same substance?
The value was “reduced”.
